Legend:
Format in all cases: in vivo
[1] = system: Echinochloa oryzacola Vasing.; experiment: Test Example 1: herbicidal activity, application before weed generation in submerged conditions (symbol A); details: application herbicide amount 320 g/ha
Summary of the method: (§1)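 Application before weed emergence: an aqueous dilution of the emulsion formulation was poured onto the surface of 4 cm-deep floodwater on the day of sowing. Effect was judged after 3 weeks (greenhouse, 25–30 °C).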

Scirpus juncoides = experiment: Test Example 1: herbicidal activity, application before weed generation in submerged conditions (symbol B); details: application herbicide amount 320 g/ha
Summary of the method: as §1

[2] = system: Echinochloa crus-galli var. crus-galli; experiment: Test Example 3: herbicidal effect by foliage application, Wagner pot (symbol H); details: application herbicide amount 320 g/ha
Summary of the method: (§2)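 Foliar spray of water-diluted emulsion formulation at a predetermined herbicide amount onto 14-day-old plants in flooded alluvial soil (water depth 0.1–0.5 cm), greenhouse 25–30 °C; rice sown alongside. Scored 3 wk post-application on set criteria.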

Leptochloa chinensis = experiment: Test Example 3: herbicidal effect by foliage application, Wagner pot (symbol D); details: application herbicide amount 320 g/ha
Summary of the method: as §2

Cyperus difformis = experiment: Test Example 3: herbicidal effect by foliage application, Wagner pot (symbol E); details: application herbicide amount 320 g/ha
Summary of the method: as §2

[3] = system: directly sowed rice plant; experiment: Test Example 3: effect on crop by foliage application, Wagner pot (symbol b); details: application herbicide amount 320 g/ha
Summary of the method: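 Plants are raised from seed in flooded paddy conditions: water stands 0.1–0.5 cm over alluvial soil, and the pot is kept in a greenhouse at 25–30 °C. Species sown are barnyardgrass (E. crus-galli var. crus-galli), Leptochloa chinensis, Cyperus difformis and rice.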

Digitaria ciliaris = experiment: Test Example 4: herbicidal effect by soil treatment (symbol F); details: application herbicide amount 320 g/ha
Summary of the method: (§3)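 Seeds were sown in sterilized diluvial soil, covered with about 1.5 cm of soil, and the soil surface was sprayed with a water-diluted emulsion of the compound at a predetermined rate. Plants grew in a greenhouse at 25° C. to 30° C.; effects were scored visually 3 weeks after application.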

Alopecurus myosuroides [4] = experiment: Test Example 4: herbicidal effect by soil treatment (symbol J); details: application herbicide amount 320 g/ha
Summary of the method: as §3

corn = experiment: Test Example 4: effect on crop by soil treatment (symbol c); details: application herbicide amount 320 g/ha
Summary of the method: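 Diluvial soil (sterilized) in boxes; seeds placed spot-wise alongside weed species; ~1.5 cm covering soil. Greenhouse, 25–30° C.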

rapeseed = experiment: Test Example 4: effect on crop by soil treatment (symbol g); details: application herbicide amount 320 g/ha
Summary of the method: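 Plants grew in a 25° C. to 30° C. greenhouse after spot-sowing of seeds, including beet, rapeseed, wheat and rice, into sterilized diluvial soil under roughly 1.5 cm of cover soil.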

Alopecurus myosuroides [5] = experiment: Test Example 5: herbicidal effect by foliage application, plastic box (symbol J); details: 320 g/ha, 3 weeks after application
Summary of the method: (§4)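 Leaf-applied emulsion, water-diluted to a preset herbicide dose, on two-week-old seedlings raised in a 25° C. to 30° C. greenhouse; injury rated at 3 weeks using earlier criteria.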

Apera spica-venti = experiment: Test Example 5: herbicidal effect by foliage application, plastic box (symbol L); details: 320 g/ha, 3 weeks after application
Summary of the method: as §4

Abutilon theophrasti = experiment: Test Example 5: herbicidal effect by foliage application, plastic box (symbol M); details: 320 g/ha, 3 weeks after application
Summary of the method: as §4

Stellaria media = experiment: Test Example 5: herbicidal effect by foliage application, plastic box (symbol P); details: 320 g/ha, 3 weeks after application
Summary of the method: as §4

Galium spurium = experiment: Test Example 5: herbicidal effect by foliage application, plastic box (symbol Q); details: 320 g/ha, 3 weeks after application
Summary of the method: as §4

wheat = experiment: Test Example 5: effect on crop by foliage application, plastic box (symbol e); details: 320 g/ha, 3 weeks after application
Summary of the method: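 Sterilized diluvial soil, plastic box (21 × 13 × 7 cm); spot sowing, ~1.5 cm soil cover; greenhouse 25–30° C.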

## CON=C(C)CC1CC(OC(=O)COc2ccccc2OC)=C(c2c(C)cc(C)cc2C)C1=O (centres unmarked) [1-067]
[1]
  Herbicidal effect grade, A: Echinochloa oryzacola Vasing.: 5 (Herbicidal ratio of 90% or more (almost completely withered))
Scirpus juncoides
  Herbicidal effect grade, B: Scirpus juncoides: 5 (Herbicidal ratio of 90% or more (almost completely withered))
[2]
  herbicidal effect on H (Echinochloa crus-galli var. crus-galli), grade 0-5: 5 (Herbicidal ratio of 90% or more (almost completely withered))
Leptochloa chinensis
  herbicidal effect on D (Leptochloa chinensis), grade 0-5: 5 (Herbicidal ratio of 90% or more (almost completely withered))
Cyperus difformis
  herbicidal effect on E, grade 0-5: 5 (Herbicidal ratio of 90% or more (almost completely withered))
[3]
  effect on crop b (directly sowed rice plant), grade 0-5: 5 (Herbicidal ratio of 90% or more (almost completely withered))
Digitaria ciliaris
  F (Digitaria ciliaris) herbicidal effect grade: 5 (Herbicidal ratio of 90% or more (almost completely withered))
Alopecurus myosuroides [4]
  J (Alopecurus myosuroides) herbicidal effect grade: 5 (Herbicidal ratio of 90% or more (almost completely withered))
corn
  c (corn) effect on crop grade: 3 (Herbicidal ratio of 40% or higher and lower than 70%)
rapeseed
  g (rapeseed) effect on crop grade: 4 (Herbicidal ratio of 70% or higher and lower than 90%)
Alopecurus myosuroides [5]
  J: Alopecurus myosuroides, herbicidal effect grade: 5 (Herbicidal ratio of 90% or more (almost completely withered))
Apera spica-venti
  L: Apera spica-venti, herbicidal effect grade: 5 (Herbicidal ratio of 90% or more (almost completely withered))
Abutilon theophrasti
  M: Abutilon theophrasti, herbicidal effect grade: 5 (Herbicidal ratio of 90% or more (almost completely withered))
Stellaria media
  P: Stellaria media, herbicidal effect grade: 3 (Herbicidal ratio of 40% or higher and lower than 70%)
Galium spurium
  Q: Galium spurium, herbicidal effect grade: 2 (Herbicidal ratio of 20% or higher and lower than 40%)
wheat
  e: wheat, effect on crop grade: 5 (Herbicidal ratio of 90% or more (almost completely withered))

## CON=C(CC1CC1)CC1CC(O)=C(c2c(C)cc(C)cc2C)C1=O (centres unmarked) [1-070]
[1]
  Herbicidal effect grade, A: Echinochloa oryzacola Vasing.: 4 (Herbicidal ratio of 70% or higher and lower than 90%)
Scirpus juncoides
  Herbicidal effect grade, B: Scirpus juncoides: 0 (Herbicidal ratio of 5% or lower (almost no effect))
[2]
  herbicidal effect on H (Echinochloa crus-galli var. crus-galli), grade 0-5: 5 (Herbicidal ratio of 90% or more (almost completely withered))
Leptochloa chinensis
  herbicidal effect on D (Leptochloa chinensis), grade 0-5: 4 (Herbicidal ratio of 70% or higher and lower than 90%)
Cyperus difformis
  herbicidal effect on E, grade 0-5: 4 (Herbicidal ratio of 70% or higher and lower than 90%)
[3]
  effect on crop b (directly sowed rice plant), grade 0-5: 5 (Herbicidal ratio of 90% or more (almost completely withered))
Digitaria ciliaris
  F (Digitaria ciliaris) herbicidal effect grade: 4 (Herbicidal ratio of 70% or higher and lower than 90%)
Alopecurus myosuroides [4]
  J (Alopecurus myosuroides) herbicidal effect grade: 5 (Herbicidal ratio of 90% or more (almost completely withered))
corn
  c (corn) effect on crop grade: 1 (Herbicidal ratio of 5% or higher and lower than 20%)
rapeseed
  g (rapeseed) effect on crop grade: 0 (Herbicidal ratio of 5% or lower (almost no effect))
Alopecurus myosuroides [5]
  J: Alopecurus myosuroides, herbicidal effect grade: 5 (Herbicidal ratio of 90% or more (almost completely withered))
Apera spica-venti
  L: Apera spica-venti, herbicidal effect grade: 4 (Herbicidal ratio of 70% or higher and lower than 90%)
Abutilon theophrasti
  M: Abutilon theophrasti, herbicidal effect grade: 0 (Herbicidal ratio of 5% or lower (almost no effect))
Stellaria media
  P: Stellaria media, herbicidal effect grade: 0 (Herbicidal ratio of 5% or lower (almost no effect))
Galium spurium
  Q: Galium spurium, herbicidal effect grade: 2 (Herbicidal ratio of 20% or higher and lower than 40%)
wheat
  e: wheat, effect on crop grade: 0 (Herbicidal ratio of 5% or lower (almost no effect))

## CON=C(C)CC1CC(OC(=O)COc2ccccc2[N+](=O)[O-])=C(c2c(C)cc(C)cc2C)C1=O (centres unmarked) [1-071]
[1]
  Herbicidal effect grade, A: Echinochloa oryzacola Vasing.: 5 (Herbicidal ratio of 90% or more (almost completely withered))
Scirpus juncoides
  Herbicidal effect grade, B: Scirpus juncoides: 4 (Herbicidal ratio of 70% or higher and lower than 90%)
[2]
  herbicidal effect on H (Echinochloa crus-galli var. crus-galli), grade 0-5: 5 (Herbicidal ratio of 90% or more (almost completely withered))
Leptochloa chinensis
  herbicidal effect on D (Leptochloa chinensis), grade 0-5: 5 (Herbicidal ratio of 90% or more (almost completely withered))
Cyperus difformis
  herbicidal effect on E, grade 0-5: 5 (Herbicidal ratio of 90% or more (almost completely withered))
[3]
  effect on crop b (directly sowed rice plant), grade 0-5: 5 (Herbicidal ratio of 90% or more (almost completely withered))
Digitaria ciliaris
  F (Digitaria ciliaris) herbicidal effect grade: 5 (Herbicidal ratio of 90% or more (almost completely withered))
Alopecurus myosuroides [4]
  J (Alopecurus myosuroides) herbicidal effect grade: 5 (Herbicidal ratio of 90% or more (almost completely withered))
corn
  c (corn) effect on crop grade: 4 (Herbicidal ratio of 70% or higher and lower than 90%)
rapeseed
  g (rapeseed) effect on crop grade: 4 (Herbicidal ratio of 70% or higher and lower than 90%)
Alopecurus myosuroides [5]
  J: Alopecurus myosuroides, herbicidal effect grade: 5 (Herbicidal ratio of 90% or more (almost completely withered))
Apera spica-venti
  L: Apera spica-venti, herbicidal effect grade: 5 (Herbicidal ratio of 90% or more (almost completely withered))
Abutilon theophrasti
  M: Abutilon theophrasti, herbicidal effect grade: 4 (Herbicidal ratio of 70% or higher and lower than 90%)
Stellaria media
  P: Stellaria media, herbicidal effect grade: 0 (Herbicidal ratio of 5% or lower (almost no effect))
Galium spurium
  Q: Galium spurium, herbicidal effect grade: 2 (Herbicidal ratio of 20% or higher and lower than 40%)
wheat
  e: wheat, effect on crop grade: 5 (Herbicidal ratio of 90% or more (almost completely withered))

## CON=C(C)CC1CC(OC(=O)COc2ccc(C)cc2)=C(c2c(C)cc(C)cc2C)C1=O (centres unmarked) [1-072]
[1]
  Herbicidal effect grade, A: Echinochloa oryzacola Vasing.: 5 (Herbicidal ratio of 90% or more (almost completely withered))
Scirpus juncoides
  Herbicidal effect grade, B: Scirpus juncoides: 4 (Herbicidal ratio of 70% or higher and lower than 90%)
[2]
  herbicidal effect on H (Echinochloa crus-galli var. crus-galli), grade 0-5: 4 (Herbicidal ratio of 70% or higher and lower than 90%)
Leptochloa chinensis
  herbicidal effect on D (Leptochloa chinensis), grade 0-5: 5 (Herbicidal ratio of 90% or more (almost completely withered))
Cyperus difformis
  herbicidal effect on E, grade 0-5: 4 (Herbicidal ratio of 70% or higher and lower than 90%)
[3]
  effect on crop b (directly sowed rice plant), grade 0-5: 5 (Herbicidal ratio of 90% or more (almost completely withered))
Digitaria ciliaris
  F (Digitaria ciliaris) herbicidal effect grade: 5 (Herbicidal ratio of 90% or more (almost completely withered))
Alopecurus myosuroides [4]
  J (Alopecurus myosuroides) herbicidal effect grade: 5 (Herbicidal ratio of 90% or more (almost completely withered))
corn
  c (corn) effect on crop grade: 5 (Herbicidal ratio of 90% or more (almost completely withered))
rapeseed
  g (rapeseed) effect on crop grade: 4 (Herbicidal ratio of 70% or higher and lower than 90%)
Alopecurus myosuroides [5]
  J: Alopecurus myosuroides, herbicidal effect grade: 5 (Herbicidal ratio of 90% or more (almost completely withered))
Apera spica-venti
  L: Apera spica-venti, herbicidal effect grade: 5 (Herbicidal ratio of 90% or more (almost completely withered))
Abutilon theophrasti
  M: Abutilon theophrasti, herbicidal effect grade: 5 (Herbicidal ratio of 90% or more (almost completely withered))
Stellaria media
  P: Stellaria media, herbicidal effect grade: 2 (Herbicidal ratio of 20% or higher and lower than 40%)
Galium spurium
  Q: Galium spurium, herbicidal effect grade: 2 (Herbicidal ratio of 20% or higher and lower than 40%)
wheat
  e: wheat, effect on crop grade: 5 (Herbicidal ratio of 90% or more (almost completely withered))

## CON=C(C)CC1CC(OC(=O)COc2cccc(C#N)c2)=C(c2c(C)cc(C)cc2C)C1=O (centres unmarked) [1-074]
[1]
  Herbicidal effect grade, A: Echinochloa oryzacola Vasing.: 5 (Herbicidal ratio of 90% or more (almost completely withered))
Scirpus juncoides
  Herbicidal effect grade, B: Scirpus juncoides: 5 (Herbicidal ratio of 90% or more (almost completely withered))
[2]
  herbicidal effect on H (Echinochloa crus-galli var. crus-galli), grade 0-5: 5 (Herbicidal ratio of 90% or more (almost completely withered))
Leptochloa chinensis
  herbicidal effect on D (Leptochloa chinensis), grade 0-5: 5 (Herbicidal ratio of 90% or more (almost completely withered))
Cyperus difformis
  herbicidal effect on E, grade 0-5: 5 (Herbicidal ratio of 90% or more (almost completely withered))
[3]
  effect on crop b (directly sowed rice plant), grade 0-5: 5 (Herbicidal ratio of 90% or more (almost completely withered))
Digitaria ciliaris
  F (Digitaria ciliaris) herbicidal effect grade: 5 (Herbicidal ratio of 90% or more (almost completely withered))
Alopecurus myosuroides [4]
  J (Alopecurus myosuroides) herbicidal effect grade: 5 (Herbicidal ratio of 90% or more (almost completely withered))
corn
  c (corn) effect on crop grade: 4 (Herbicidal ratio of 70% or higher and lower than 90%)
rapeseed
  g (rapeseed) effect on crop grade: 4 (Herbicidal ratio of 70% or higher and lower than 90%)
Alopecurus myosuroides [5]
  J: Alopecurus myosuroides, herbicidal effect (criteria 0-5): 5 (Herbicidal ratio of 90% or more (almost completely withered))
Apera spica-venti
  L: Apera spica-venti, herbicidal effect (criteria 0-5): 5 (Herbicidal ratio of 90% or more (almost completely withered))
Abutilon theophrasti
  M: Abutilon theophrasti, herbicidal effect (criteria 0-5): 3 (Herbicidal ratio of 40% or higher and lower than 70%)
Stellaria media
  P: Stellaria media, herbicidal effect (criteria 0-5): 1 (Herbicidal ratio of 5% or higher and lower than 20%)
Galium spurium
  Q: Galium spurium, herbicidal effect (criteria 0-5): 1 (Herbicidal ratio of 5% or higher and lower than 20%)
wheat
  e: wheat, effect on crop (criteria 0-5): 5 (Herbicidal ratio of 90% or more (almost completely withered))
